Reference: patent US7378387B2, “Method of suppressing immune response by reducing intracellular content of glutathione in macrophages and monocytes” (Ajinomoto Co., Inc., priority 1997, dated 2008)

Tests used:
[1] = tested on: COLON 26 transplantable tumor; test: Survival of COLON 26 advanced tumor-bearing cachectic mice (Example 4); format: in vivo, CDF1 mice; conditions: oral 1 mg/0.5 ml/h for 10 days, COLON 26 mice; control mice 42
[2] = tested on: reductive glutathione in peritoneal macrophages; test: Reductive glutathione content of peritoneal macrophages by ACAS, advanced tumor-bearing mice (Example 4); format: in vivo, CDF1 mice; conditions: oral 1 mg/0.5 ml/h every day for 10 days from day 21 after COLON 26 implantation; control physiological saline
Method: Oxidative and reductive macrophages collected from peritoneal cavities of advanced tumor-bearing cachectic mice (COLON 26) and normal mice were determined. The COLON 26 transplantable tumor well known to induce a cancer cachexia was implanted subcutaneously in the back portion of CDF1 mice at a density of 5×10^5 cells/mouse. On day 21 after the tumor implantation, the cachectic condition was provided. Five milliliters of a physiological saline solution were intraperitoneally injected into the mice which became resistant to a therapeutic treatment. Peritoneal macrophages were collected, and suspended in a phenol red-free RPMI 1640 medium containing 10% fetal calf serum to a density of 3×10^5 cells/ml. One hundred microliters of the suspension were charged in a Lab-Tek Chamber Slide (#136439, supplied by Nunc), and incubated in 5% CO2 at 37° C. for 3 hours. After the nonadherent cells were removed, 200 μl of the above-mentioned medium free from serum were added thereto, and monochlorobimane (MCB) was added thereto in an amount of 10 μM. The reaction was conducted for 30 minutes, and the image analysis was conducted on the basis of the UV absorption using an ACAS device (supplied by Meridien).
The COLON 26 transplantable tumor was implanted subcutaneously in the back portion of CDF1 mice at a density of 5×10^5 cells/mouse. […]

PGE2 = PGE2 in macrophage culture supernatant, advanced tumor-bearing mice (Example 4); format: in vivo, CDF1 mice; conditions: oral 1 mg/0.5 ml/h for 10 days, COLON 26 mice; control mice 32 ng/ml
Method: After the completion of the above-mentioned incubation, the culture supernatant was recovered. The amount of IL-6 was measured by the proliferation assay using an IL-6-dependent cell strain, MH60, the amount of PGE2 was measured using an ELISA-kit, and the amount of NO was measured using a Griess-Romijn reagent. These measurements were conducted by a method which those skilled in the art usually employ.
The COLON 26 transplantable tumor was implanted subcutaneously in the back portion of CDF1 mice at a density of 5×10^5 cells/mouse. […] Glutathione ethyl ester was orally administered to the mice every day in a dosage of 1 mg/0.5 ml/h. This oral administration was continued for 10 days. The peritoneal cells were collected from the mice in the same manner as in Example 3. Peritoneal macrophages were collected, and suspended in a phenol red-free RPMI 1640 medium containing 10% fetal calf serum to a density 3×10^5 cells/ml. The suspension was charged into a Lab-Tek Chamber Slide (#136439, supplied by Nunc) in an amount of 100 μl, and the incubation was conducted in 5% CO2 at 37° C. for 3 hours. After the nonadherent cells were removed, 200 μl of above-mentioned medium free from serum were added thereto, and 10 μM of monochlorobimane were then added thereto. […]

IL-6 = IL-6 in culture supernatant of macrophage-like cells from rheumatoid arthritis patients (Example 17); format: cell-based, human; conditions: added at 2 mM
Method: A stimulator was added to 1×10^6 MΦ, and the incubation was conducted at 37° C. for 2 days in a CO2 incubator. After centrifugation, the culture supernatant was collected.
The amount of IL-6 was determined using IL-6 dependent mouse hybridoma MH60 cells (J. Eur. Immunol., vol. 18, p. 951, 1988). One hundred microliters of the culture supernatant were added to 100 μl of the MH60 cell suspension adjusted to 1×10^5 cells/ml in a 10% FCS-containing RPMI medium, and the mixed solution was incubated at 37° C. for 2 days in a CO2 incubator. Subsequently, 10 μl of MTT (supplied by Sigma Co.) solution adjusted to a concentration of 5 mg/ml in the same medium were added thereto, and the reaction was conducted at 37° C. for 5 hours. After the completion of the reaction, the centrifugation was conducted. The supernatant (160 μl) was removed, and 100 μl of a mixture of hydrochloric acid and propanol were added to the residue. The suspension was conducted using a pipetman to dissolve the cells. Immediately after the dissolution, an absorbance of 570 nm was measured with an immunometer (supplied by Bio-Rad).
By the same manner as in Example 3, macrophage-like cells were collected from tissues of rheumatoid arthritis patients, and were then suspended and adjusted in a phenol red-free RPMI 1640 culture medium supplemented with 10% fetal calf serum to 3×10^6 cells/ml. […]

[3] = tested on: reduced glutathione in intraperitoneal macrophages; test: Reduced glutathione in intraperitoneal macrophages of NOD mice by ACAS (Example 22); format: in vivo; conditions: doses given per substance
IL-12 = IL-12 production of MΦ after NAC drinking and/or IL-2 administration (Example 8); format: in vivo, DBA/2 female mice; conditions: stimulated with LPS and IFNγ; control mice 0 pg/ml
Method: The amount of IL-12 was determined through bioassay using cells of human T cell strain 2D6 (J. Leukocyte Biology, vol. 61, p. 346, 1997).
2D6 cells which had been incubated in an RPMI 1640 medium containing 500 pg/ml of recombinant human IL-12, 50 μM of 2-mercaptoethanol and 10% FCS (fetal calf serum) were moved to a tube, and centrifugally washed three times with the above-mentioned medium without IL-12 and cell density was adjusted to 1×10^5/ml. The cell suspension was added in an amount of 100 μl each to a 96-well flat bottom plate containing a sample serially diluted in advance with an RPMI 1640 medium containing 50 μM of 2-mercaptoethanol and 10% FCS in an amount of 100 μl each. Subsequently, the mixture was charged into a 5% […] incubator of 37° C., and incubated for 48 hours. For final 6 hours, ^3H-TdR was pulsed (a substance adjusted to 370 kBq/ml in an RPMI 1640 medium containing 50 μM of 2-mercaptoethanol and 10% FCS was added in an amount of 50 μl each). The cells a harvested, and the radioactivity was measured using a β counter (Matrix 96, supplied by Packard).

[4] = tested on: reductive glutathione in MΦ; test: GSH content in MΦ by ACAS after NAC drinking and/or IL-2 administration (Example 8); format: in vivo, DBA/2 female mice; conditions: NAC 1 mg/ml in city water; IL-2 intraperitoneally twice a day every two days for two weeks; day 14
Method: Three-hundred microliters of a cell suspension adjusted concentration of 3×10^5 cells/ml in an RPMI 1640 medium (phenol red-free) were charged into a chambered coverglass (#136439, supplied by Nunc), and incubated at 37° C. for 2 hours using a CO2 incubator. The culture solution was washed with the medium, and 300 μl of monochlorobimane (supplied by Molecular Plobe) adjusted to 10 μM in the same medium were added thereto. The mixture was charged into a CO2 incubator of 37° C., and the reaction was conducted for 30 minutes. The fluorescent intensity was measured with ACAS. In ACAS, a UV laser was used.
Two groups, namely, a group of 8-week-old DBA/2 female mice which were caused to freely drink city water as in Example 6, and a group of the same female mice which were caused to freely drink city water containing 1 mg/ml of NAC, were prepared. Further, the two groups of the-above-mentioned mice to which human recombinant IL-2 in an amount of 2 pg/0.5 ml/h was intraperitoneally administered twice a day, every two days for two weeks were provided.

CCOC(=O)CNC(=O)[C@H](CS)NC(=O)CC[C@H](N)C(=O)O [GSH-OEt, glutathione monoethyl ester]
average number of survival days [1]: 148 days | amount of oxidative macrophage (reductive glutathione content decreased) in comparison with control mice [2]: relatively decreased | amount of PGE2 (PGE2): 6.5 ng/mL | IL-6 in the culture supernatant of the macrophages (IL-6): prominently decreased | relative ratio of oxidative macrophages compared with saline-dosed NOD mice ([3]; intraperitoneal dosing on alternate days from age 3-4 weeks): same action is also observed | relative ratio of oxidative macrophages compared with saline-dosed NOD mice ([3]; oral dosing on alternate days from age 3-4 weeks): same action is also observed | relative ratio of oxidative macrophages compared with saline-dosed NOD mice ([3]; oral dosing on alternate days from age 3-4 weeks, listed as glutathione ethyl ester): decreased

CC(=O)N[C@@H](CS)C(=O)O [NAC, N-acetylcysteine, reference compound]
amount of IL-12 (IL-12): 620 pg/mL | content of reductive glutathione in MΦ (ACAS) [4]: markedly increased
